How the values were obtained:
[1] = test system: HFD-induced obese rats; assay: Glucose tolerance tests after i.c.v. OT infusion; type: in vivo, rat; settings: after 7 weeks of HFD, i.c.v. 1.6 nmol/d
Method: The impact of OT-induced changes in peripheral lipid metabolism on glucose tolerance and insulin sensitivity was determined by glucose tolerance tests (GTT). Glucose (75 mg/kg body weight) was intraperitoneally administered 4 h after food removal. Blood glucose levels were measured using a glucose meter (One Touch II; LifeScan) from tail blood samples at 0, 15, 30, 60, 90, and 120 min after glucose injection.
Two glucose tolerance tests (GTT) were performed, a first one after […] of HFD (i.e. before the respective saline and OT treatments) and a second one at the end of the 2 week saline or OT infusion (i.e. after 7 weeks of HFD).

[2] = test system: HFD-induced obese rats; assay: High-fat diet-induced obesity rat model, subcutaneous infusion: body weight gain, food intake, body composition; type: in vivo; settings: s.c. OT 50 nmol/day, 10 days, independent of food intake
[3] = test system: HFD-induced obese rats; assay: as above; type: in vivo
Method: Another group of the above male Wistar rats were rendered obese as described above and were subcutaneously infused with saline or OT (NeoMPS®, Strasbourg, France) (50 nmol/day/rat) during 14 days.
The beneficial metabolic effects of OT administration were assayed in the same high-fat diet induced obesity model in rats as in Example 1 and in PPAR-alpha knockout mice (Lee et al., 1995, Mol. Cell. Biol., 15(6):3012-22). HFD-induced obese animals, saline or OT groups (see conditions under Example 1) were subcutaneously infused via minipumps (Alzet®, as above). OT was delivered at a dose of 50 nmol/day/rat during 14 days.
An EchoMRI-700 quantitative nuclear magnetic resonance (QMR) analyzer (Echo Medical Systems, Houston, Tex.) was used to measure total fat mass and lean body mass in rats at the beginning and the end of the treatment.
The beneficial metabolic effects of administration of an oxytocin derivative according to the invention (Carbetocin) were assessed in the same rat model of high-fat diet induced obesity as in Example 1. HFD-induced obese animals were subcutaneously infused via minipumps (Alzet®, as above) with saline or carbetocin (Bachem) (5 nmol/day/rat or 50 nmol/day/rat) during 14 days.
Body composition parameters were measured by quantitative nuclear magnetic resonance as described in Example 3 at the beginning and 10 days of treatment.

[4] = test system: differentiated 3T3-L1 adipocytes; assay: Lipid metabolism in differentiated 3T3-L1 adipocytes in vitro; type: cell-based, Murine; settings: 24 h incubation, 5 μM OT
Method: The in vitro effect of OT on lipid metabolism in differentiated 3T3-L1 adipocytes was assayed as follows. Murine 3T3-L1 fibroblasts were differentiated towards a […] phenotype as previously described (Olson et al., 1997, Mol. Cell. Biol., 2425-2435). In brief, cells were cultured in Dulbecco's modified eagle medium (DMEM) with 4.5 g/l glucose supplemented with 10% heat-inactivated depleted calf serum (DCS) at 37° C./8% CO2. Cells were induced to differentiate, two days post confluence, by sequential incubations with: DMEM 4.5 g/l glucose, 10% fetal bovine serum (FCS) containing 1 μg/ml insulin, 0.25 μM dexamethasone and 0.5 mM isobutylmethylxanthane (IBMX) for 4 days; DMEM 4.5 g/l glucose, 10% FCS containing insulin alone for an additional 4 days; DMEM 4.5 g/l glucose, 10% FCS for 3-4 days. Differentiation was considered achieved when more than 90% of cells display an accumulation of large lipid droplets in their cytoplasm.

[5] = test system: HFD-induced obese rats; assay: Euglycemic-hyperinsulinemic clamps after i.c.v. OT infusion; type: in vivo, rat; settings: 14-day i.c.v. 1.6 nmol/d
Method: Global and tissue-specific glucose utilization rates were measured by performing euglycemic-hyperinsulinemic clamps associated with the labeled 2-deoxyglucose technique as previously described (Vettor et al., 1994, Diabetologia, 37, 1202-1208). HFD-induced obese rats were overnight fasted and intraperitoneally anesthetized with Nembutal (75 mg/kg sodium pentobarbital; Abbott Laboratories, Chicago, Ill.). Total glucose utilization was measured during euglycemic-hyperinsulinemic clamps, as previously described (Vettor et al., 1994, above). At the end of the clamp, the in vivo insulin-stimulated glucose utilization index of individual tissues was determined by injecting a single bolus of labeled 2-deoxy-D-[1-3H]glucose (30 μCi; Amersham Biosciences UK, Little Chalfont, UK), as previously described (Vettor et al., 1994, above). Rats were killed by rapid decapitation, and tissues were rapidly removed, freeze-clamped, and stored at −80° C. Measurement of tissue concentration of 2-deoxy-d-[1-^3H]glucose-6-phosphate allowed calculation (Vettor et al., 1994, above) of the in vivo glucose utilization index of individual tissues and was expressed in ng/mg·min.

[6] = test system: enzymes involved in lipid metabolism; assay: Tissue expression of lipid metabolism enzymes (real-time RT-PCR) after i.c.v. OT infusion; type: in vivo, rat; settings: central OT infusion

Q: How did the “insulin oversecretion during GTT” value [1] turn out when `CC[C@H](C)[C@@H]1NC(=O)[C@H](Cc2ccc(O)cc2)NC(=O)[C@@H](N)CSSC[C@@H](C(=O)N2CCC[C@H]2C(=O)N[C@@H](CC(C)C)C(=O)NCC(N)=O)NC(=O)[C@H](CC(N)=O)NC(=O)[C@H](CCC(N)=O)NC1=O` [OT, Cys-Tyr-Ile-Gln-Asn-Cys-Pro-Leu-Gly (SEQ ID NO: 1)] was run?
A: The value was “not observed”.

Q: What about the “glucose tolerance (GTT)” value ([1]; compared to GTT after 3 weeks of HFD) of the same compound?
A: Its value is “impairment”.

Q: What about the “fat mass (QMR)” value [2] of the same compound?
A: The value was “significant decrease”.

Q: What about the “percent lean body mass (QMR)” value [2] of the same compound?
A: Its value is “increase”.

Q: What about the food intake ([3]; s.c. 50 nmol/day, 14 days) of the same compound?
A: Its food intake is “decreased”.

Q: What about the body weight gain ([3]; s.c. 50 nmol/day, 14 days, not observed in pair-fed group) of the same compound?
A: Its body weight gain is “decreased”.

Q: What about the “fat mass by weighing adipose tissue depots” value ([3]; s.c. OT 50 nmol/day) of the same compound?
A: Its value is “food intake-independent decrease”.

Q: What about the OEA content [4] of the same compound?
A: Its OEA content is “increased”.

Q: What about the “PPAR-alpha mRNA expression” value [4] of the same compound?
A: The value was “stimulatory effect”.

Q: What about the “mRNA expression of all the lipid metabolism-related genes affected by central OT infusion” value [4] of the same compound?
A: The value was “increased”.

Q: What about the “Scd1 mRNA expression” value ([4]; relative to effect in centrally infused rats) of the same compound?
A: The value was “less marked”.

Q: What about the “glucose uptake in epididymal WAT” value [5] of the same compound?
A: The value was “significant increase”.

Q: And the “glucose uptake in inguinal WAT” value [5]?
A: The value was “significant increase”.

Q: And the “glucose infusion rate (GIR)” value ([5]; compared to saline)?
A: The value was “significant increases”.

Q: And the “glucose utilization index, red gastrocnemius” value ([5]; compared to saline)?
A: Its value is “significant increases”.

Q: And the “glucose utilization index, red quadriceps” value ([5]; compared to saline)?
A: The value was “significant increases”.

Q: And the “glucose utilization index, soleus” value ([5]; compared to saline)?
A: The value was “significant increases”.

Q: What about the “HSL at the protein level” value [6] of the same compound?
A: Its value is “stimulatory effect”.

Q: What about the “expression of genes involved in fatty acid β-oxidation” value ([6]; liver) of the same compound?
A: The value was “did not modify”.

From US9101569B2, “Methods for the treatment of insulin resistance” (UNIVERSITE DE GENEVE, priority 2010, dated 2015)
